Measurements reported in patent US20230053540A1, “TREATMENT OF LIVER INJURY” (Massachusetts Institute of Technology, priority 2019, published 2023).

Test system: hepatocytes
Experiment: Seq-Well scRNA-Seq of hepatocytes after APAP overdose (signature scores, DEG vs untreated)
Assay type: in vivo, mouse
[1] = cluster A96, DEG between treatment (APAP and PH)
[2] = fraction of A96 (APAP, 96 h) hepatocytes expressing the gene
[3] = hepatocyte cluster A96 (APAP, 96 h) vs all other clusters

CC(=O)Nc1ccc(O)cc1 [APAP, acetaminophen]
avg_logFC, gene Decr2 [1]: 0.3018 | avg_logFC, gene Dhdh [1]: 0.2626 | avg_logFC, gene Etfdh [1]: 0.2639 | avg_logFC, gene Etnppl [1]: 0.3154 | avg_logFC, gene F5 [1]: 0.2566 | avg_logFC, gene Fmo1 [1]: 0.265 | avg_logFC, gene G0s2 [1]: 0.2656 | avg_logFC, gene G6pc [1]: 0.2541 | avg_logFC, gene Gabarapl1 [1]: 0.2932 | avg_logFC, gene Gadd45b [1]: 0.2598 | avg_logFC, gene Gas5 [1]: 0.2823 | avg_logFC, gene Gm4952 [1]: 0.2581 | avg_logFC, gene Gsta2 [1]: 0.311 | avg_logFC, gene Gstt3 [1]: 0.3026 | avg_logFC, gene Gyk [1]: 0.3134 | avg_logFC, gene Hmgcl [1]: 0.2744 | avg_logFC, gene Hmgcs1 [1]: 0.3251 | avg_logFC, gene Hpgd [1]: 0.3412 | avg_logFC, gene Hsd17b7 [1]: 0.3028 | avg_logFC, gene Hsd17b10 [1]: 0.2802 | avg_logFC, gene Igfbp1 [1]: 0.2603 | avg_logFC, gene Kif1b [1]: 0.2961 | avg_logFC, gene Lcat [1]: 0.2616 | avg_logFC, gene Mia3 [1]: 0.2604 | avg_logFC, gene Ndufa3 [1]: 0.2743 | avg_logFC, gene Ndufa7 [1]: 0.26 | avg_logFC, gene Nr1i3 [1]: 0.3481 | avg_logFC, gene Oat [1]: 0.4904 | avg_logFC, gene Pon1 [1]: 0.2899 | avg_logFC, gene Por [1]: 0.2867 | avg_logFC, gene Ppp1r3b [1]: 0.251 | avg_logFC, gene Ppp2r5a [1]: 0.3505 | avg_logFC, gene Ptms [1]: 0.2863 | avg_logFC, gene Pxmp4 [1]: 0.2555 | avg_logFC, gene Rdh16 [1]: 0.3477 | avg_logFC, gene Rdx [1]: 0.2566 | avg_logFC, gene Rgn [1]: 0.3686 | avg_logFC, gene Sc4mol [1]: 0.3361 | avg_logFC, gene Slc4a4 [1]: 0.2977 | avg_logFC, gene Slc25a20 [1]: 0.2507 | avg_logFC, gene Slco1a4 [1]: 0.3049 | avg_logFC, gene Snord118 [1]: 0.3782 | avg_logFC, gene Tgoln1 [1]: 0.2809 | avg_logFC, gene Tmed5 [1]: 0.2523 | avg_logFC, gene Tobi [1]: 0.2958 | avg_logFC, gene Tsc22d3 [1]: 0.3363 | avg_logFC, gene Zfp36l1 [1]: 0.2964 | avg_logFC, gene Zfp91 [1]: 0.2775 | pct.1 8430408G22Rik [2]: 0.559 | pct.1 Acot12 [2]: 0.65 | pct.1 Agpat6 [2]: 0.743 | pct.1 Aplp2 [2]: 0.826 | pct.1 Apoc2 [2]: 0.901 | pct.1 Apol7a [2]: 0.559 | pct.1 Aqp9 [2]: 0.801 | pct.1 Arl4a [2]: 0.517 | pct.1 Brap [2]: 0.642 | pct.1 Cd36 [2]: 0.299 | pct.1 Cebpb [2]: 0.585 | pct.1 Cede107 [2]: 0.59 | pct.1 Ces1e [2]: 0.71 | pct.1 Ces1f [2]: 0.895 | pct.1 Cisd1 [2]: 0.781 | pct.1 Cpeb4 [2]: 0.527 | pct.1 Cpox [2]: 0.634 | pct.1 Cxcl12 [2]: 0.635 | pct.1 D4Wsu53e [2]: 0.597 | pct.1 D17Wsu92e [2]: 0.771 | pct.1 Dcxr [2]: 0.735 | pct.1 Dhdh [2]: 0.734 | pct.1 Ech1 [2]: 0.917 | pct.1 Ehhadh [2]: 0.78 | pct.1 Ephx1 [2]: 0.879 | pct.1 Etfdh [2]: 0.811 | pct.1 Etnppl [2]: 0.677 | pct.1 Fmo1 [2]: 0.606 | pct.1 Gclm [2]: 0.865 | pct.1 Hamp2 [2]: 0.203 | pct.1 Hsd17b7 [2]: 0.56 | pct.1 Lcat [2]: 0.886 | pct.1 Mocs2 [2]: 0.737 | pct.1 Mtdh [2]: 0.649 | pct.1 Ndufa3 [2]: 0.737 | pct.1 Ndufb2 [2]: 0.731 | pct.1 Nfe2l2 [2]: 0.465 | pct.1 Oat [2]: 0.653 | pct.1 Pabpc1 [2]: 0.766 | pct.1 Pdk1 [2]: 0.438 | pct.1 Prkd3 [2]: 0.682 | pct.1 Ptp4a2 [2]: 0.691 | pct.1 Rgn [2]: 0.899 | pct.1 Sdhc [2]: 0.76 | pct.1 Sdhd [2]: 0.775 | pct.1 Slc4a4 [2]: 0.609 | pct.1 Slc25a10 [2]: 0.701 | pct.1 Tgoln1 [2]: 0.756 | pct.1 Tmed5 [2]: 0.714 | pct.1 Tmem106b [2]: 0.727 | pct.1 Tob1 [2]: 0.649 | pct.1 Tsc22d3 [2]: 0.534 | pct.1 Usmg5 [2]: 0.59 | pct.1 Zfp91 [2]: 0.693 | pct.1 Atp2a2 (gene Atp2a2, time point A96): 0.64 | avg_logFC Atp2a2 (gene Atp2a2, time point A96 vs untreated (UT)): 0.2537 | pct.1 Csad (gene Csad, time point A96): 0.843 | avg_logFC Csad (gene Csad, time point A96 vs untreated (UT)): 0.2906 | pct.1 Eef1b2 (gene Eef1b2, time point A96): 0.743 | avg_logFC Eef1b2 (gene Eef1b2, time point A96 vs untreated (UT)): −0.2686 | pct.1 Etnppl (gene Etnppl, time point A96): 0.677 | avg_logFC Etnppl (gene Etnppl, time point A96 vs untreated (UT)): 0.407 | pct.1 Fos (gene Fos, time point A96): 0.619 | avg_logFC Fos (gene Fos, time point A96 vs untreated (UT)): 0.3272 | pct.1 Ftl1 (gene Ftl1, time point A96): 0.363 | avg_logFC Ftl1 (gene Ftl1, time point A96 vs untreated (UT)): −0.2798 | pct.1 Gm20594 (gene Gm20594, time point A96): 0.262 | avg_logFC Gm20594 (gene Gm20594, time point A96 vs untreated (UT)): −0.2928 | pct.1 Hes6 (gene Hes6, time point A96): 0.33 | avg_logFC Hes6 (gene Hes6, time point A96 vs untreated (UT)): −0.2781 | pct.1 Hsd3b3 (gene Hsd3b3, time point A96): 0.499 | avg_logFC Hsd3b3 (gene Hsd3b3, time point A96 vs untreated (UT)): −0.313 | pct.1 Hsd17b2 (gene Hsd17b2, time point A96): 0.614 | avg_logFC Hsd17b2 (gene Hsd17b2, time point A96 vs untreated (UT)): −0.3005 | pct.1 Hsd17b13 (gene Hsd17b13, time point A96): 0.755 | avg_logFC Hsd17b13 (gene Hsd17b13, time point A96 vs untreated (UT)): 0.2678 | pct.1 Ifi27 (gene Ifi27, time point A96): 0.325 | avg_logFC Ifi27 (gene Ifi27, time point A96 vs untreated (UT)): −0.2572 | pct.1 Ifitm3 (gene Ifitm3, time point A96): 0.742 | avg_logFC Ifitm3 (gene Ifitm3, time point A96 vs untreated (UT)): −0.2797 | pct.1 Krt8 (gene Krt8, time point A96): 0.47 | avg_logFC Krt8 (gene Krt8, time point A96 vs untreated (UT)): −0.265 | pct.1 Malat1 (gene Malat1, time point A96): 0.702 | avg_logFC Malat1 (gene Malat1, time point A96 vs untreated (UT)): −0.4647 | pct.1 Mup2 (gene Mup2, time point A96): 0.256 | avg_logFC Mup2 (gene Mup2, time point A96 vs untreated (UT)): −0.5008 | pct.1 Mup4 (gene Mup4, time point A96): 0.824 | avg_logFC Mup4 (gene Mup4, time point A96 vs untreated (UT)): −0.6934 | pct.1 Naa50 (gene Naa50, time point A96): 0.517 | avg_logFC Naa50 (gene Naa50, time point A96 vs untreated (UT)): 0.2658 | pct.1 Ndufb11 (gene Ndufb11, time point A96): 0.669 | avg_logFC Ndufb11 (gene Ndufb11, time point A96 vs untreated (UT)): −0.2832 | pct.1 Nme1 (gene Nme1, time point A96): 0.561 | avg_logFC Nme1 (gene Nme1, time point A96 vs untreated (UT)): −0.2724 | pct.1 Oat (gene Oat, time point A96): 0.653 | avg_logFC Oat (gene Oat, time point A96 vs untreated (UT)): 0.3439 | pct.1 Pnpla7 (gene Pnpla7, time point A96): 0.455 | avg_logFC Pnpla7 (gene Pnpla7, time point A96 vs untreated (UT)): −0.3397 | pct.1 Prdx4 (gene Prdx4, time point A96): 0.517 | avg_logFC Prdx4 (gene Prdx4, time point A96 vs untreated (UT)): −0.314 | pct.1 Psmb1 (gene Psmb1, time point A96): 0.703 | avg_logFC Psmb1 (gene Psmb1, time point A96 vs untreated (UT)): −0.2659 | pct.1 Psmb5 (gene Psmb5, time point A96): 0.241 | avg_logFC Psmb5 (gene Psmb5, time point A96 vs untreated (UT)): −0.2633 | pct.1 Rarres1 (gene Rarres1, time point A96): 0.274 | avg_logFC Rarres1 (gene Rarres1, time point A96 vs untreated (UT)): −0.2874 | pct.1 Rgn (gene Rgn, time point A96): 0.899 | avg_logFC Rgn (gene Rgn, time point A96 vs untreated (UT)): 0.2614 | pct.1 Rpl32 (gene Rpl32, time point A96): 0.689 | avg_logFC Rpl32 (gene Rpl32, time point A96 vs untreated (UT)): −0.2631 | pct.1 Rpl41 (gene Rpl41, time point A96): 0.274 | avg_logFC Rpl41 (gene Rpl41, time point A96 vs untreated (UT)): −0.2575 | pct.1 Rps8 (gene Rps8, time point A96): 0.378 | avg_logFC Rps8 (gene Rps8, time point A96 vs untreated (UT)): −0.2585 | pct.1 Rps15 (gene Rps15, time point A96): 0.468 | avg_logFC Rps15 (gene Rps15, time point A96 vs untreated (UT)): −0.2545 | pct.1 Selk (gene Selk, time point A96): 0.393 | avg_logFC Selk (gene Selk, time point A96 vs untreated (UT)): −0.2647 | pct.1 Serp1 (gene Serp1, time point A96): 0.671 | avg_logFC Serp1 (gene Serp1, time point A96 vs untreated (UT)): −0.2992 | pct.1 Ubb (gene Ubb, time point A96): 0.379 | avg_logFC Ubb (gene Ubb, time point A96 vs untreated (UT)): −0.2685 | pct.1 mmu-mir-6236 (gene mmu-mir-6236, time point A96): 0.801 | avg_logFC mmu-mir-6236 (gene mmu-mir-6236, time point A96 vs untreated (UT)): −0.6272 | pct.1 mt-Atp6 (gene mt-Atp6, time point A96): 0.43 | avg_logFC mt-Atp6 (gene mt-Atp6, time point A96 vs untreated (UT)): −0.3955 | avg_logFC 8430408G22Rik [3]: 0.2774 | avg_logFC Acot12 [3]: 0.2802 | avg_logFC Agpat6 [3]: 0.2753 | avg_logFC Aplp2 [3]: 0.2569 | avg_logFC Apoc2 [3]: 0.2872 | avg_logFC Apol7a [3]: 0.3029 | avg_logFC Aqp9 [3]: 0.2901 | avg_logFC Arl4a [3]: 0.2934 | avg_logFC Brap [3]: 0.2572 | avg_logFC Cd36 [3]: 0.2782 | avg_logFC Cebpb [3]: 0.2515 | avg_logFC Cede107 [3]: 0.2626 | avg_logFC Ces1e [3]: 0.3109 | avg_logFC Ces1f [3]: 0.2782 | avg_logFC Cisd1 [3]: 0.282 | avg_logFC Cpeb4 [3]: 0.2994 | avg_logFC Cpox [3]: 0.2562 | avg_logFC Crls1 [3]: 0.255 | avg_logFC Cxcl12 [3]: 0.3005 | avg_logFC D4Wsu53e [3]: 0.2925 | avg_logFC D17Wsu92e [3]: 0.258 | avg_logFC Dcxr [3]: 0.2522 | avg_logFC Dhdh [3]: 0.2593 | avg_logFC Ech1 [3]: 0.2509 | avg_logFC Ehhadh [3]: 0.2545 | avg_logFC Ephx1 [3]: 0.252 | avg_logFC Etfdh [3]: 0.2768 | avg_logFC Etnppl [3]: 0.411
